These results are taken from PMC10353187, “Discovery of a new potent oxindole multi-kinase inhibitor among a series of designed 3-alkenyl-oxindoles with ancillary carbonic anhydrase inhibitory activity as antiproliferative agents” (BMC Chemistry, 2023).

Experiment in all cases: NCI-60 single-dose antiproliferative assay (SRB)
What all share (assay type): cell-based

Assay [1] relates to KM12. Particulars: Homo sapiens; 10 μM single dose; KM12, Colon cancer; read-out: Cell Growth inhibition Percent. On the procedure:
(§1) From the newly synthesized compounds, eleven compounds (4c, 4d, 5, 9a, 9b, 11a, 11b, 13b, 13c, 15b, and 15c) were selected by the National Cancer Institute (NCI) Developmental Therapeutics Program (DTP), Bethesda, Maryland, USA for the in vitro anti-proliferative activity evaluation. The selected compounds were examined at 10 μM dose against the NCI 60-cell line panel. This panel consists of nine cell line groups of leukemia, non-small cell lung carcinoma (NSCLC), melanoma, colon, CNS, ovarian, renal, prostate, and breast cancers. The results are reported as mean-graph of the percent growth relative to control and presented as percentage growth inhibition (GI%), furthermore, mean GI% of each compound over all panel cell lines was calculated (Table 1; Additional file 1; S3: In vitro biological activity).
(§2) From the newly synthesized compounds, eleven compounds were selected by the National Cancer Institute (NCI) Developmental Therapeutics Program (DTP), Bethesda, Maryland, USA for the in vitro anti-proliferative activity evaluation (For further details see supplementary materials).
(§3) NCI In-vitro Cancer Screening is a two-phase procedure that starts with the assessment of all compounds against the sixty NCI cell line panel depicting leukemia, NSCLC, CNS cancer, melanoma, prostate cancer, breast cancer, renal cancer, colon cancer and ovarian cancer cell lines at a single point of 10μM. The output from the single-dose screen is reportable as a mean graph.
(§4) The human tumor cell lines of the cancer screening panel were grown in RPMI 1640 medium containing 5% fetal bovine serum and 2 mM L-glutamine. For a typical screening experiment, cells were inoculated into 96 well microtiter plates in […] at plating densities ranging from 5000 to 40,000 cells/well depending on the doubling time of individual cell lines. After cell inoculation, the microtiter plates were incubated at 37 °C, 5% CO2, 95% air and 100% relative humidity for 24 h prior to addition of experimental drugs. After 24 h, two plates of each cell line were fixed in situ with trichloroacetic acid (TCA), to represent a measurement of the cell population for each cell line at the time of drug addition (Tz). Experimental drugs were solubilized in dimethyl sulfoxide at 400-fold the desired final maximum test concentration and stored frozen prior to use. At the time of drug addition, an aliquot of frozen concentrate was thawed and diluted to twice the desired final maximum test concentration with complete medium containing 50 µg/ml gentamicin. Aliquot of 100 µl of the drug dilution was added to the appropriate microtiter wells already containing 100 µl of medium, resulting in the required final drug concentration (10 µM). Triplicate wells were prepared for each individual dose. Following drug addition, the plates were incubated for an additional 48 h at 37 °C, 5% CO2, 95% air, and 100% relative humidity. For adherent cells, the assay was terminated by the addition of cold TCA. Cells were fixed in situ by the gentle addition of 50 µl of cold 50% (w/v) TCA (final concentration, 10% TCA) and incubated for 60 min at 4 °C. The supernatant was discarded, and the plates were washed five times with tap water and air dried. Sulforhodamine B (SRB) solution (100 µl) at 0.4% (w/v) in 1% acetic acid was added to each well, and plates were incubated for 10 min at room temperature. After staining, unbound dye was removed by washing five times with 1% acetic acid and the plates were air dried. Bound stain was subsequently solubilized with 10 mM trizma base, and the absorbance was read on an automated plate reader at a wavelength of 515 nm. For suspension cells, the methodology was the same except that the assay was terminated by fixing settled cells at the bottom of the wells by gently adding 50 µl of 80% TCA (final concentration, 16% TCA). […]

Assay [2] relates to HOP-92. Particulars: Homo sapiens; 10 μM single dose; HOP-92, Non-small cell lung cancer; read-out: Cell Growth inhibition Percent. On the procedure:
as §1, §2, §3, §4

Assay [3] concerns CAKI-1. Particulars: Homo sapiens; 10 μM single dose; CAKI-1, Renal cancer; read-out: Cell Growth inhibition Percent. On the procedure:
as §1, §2, §3, §4

Assay [4] deals with OVCAR-4. As to conditions: Homo sapiens; 10 μM single dose; OVCAR-4, Ovarian Cancer; read-out: Cell Growth inhibition Percent. On the procedure: as §1, §2, §3, §4
Assay [5] relates to MDA-MB-231/ATCC. As to conditions: Homo sapiens, 10 μM single dose, Breast cancer, read-out: Cell Growth inhibition Percent. Here is the method:
as §1, §2, §3, §4

Assay [6] concerns SF-268. As to conditions: Homo sapiens; 10 μM single dose; SF-268, CNS cancer; read-out: Cell Growth inhibition Percent. Here is the method:
as §1, §2, §3, §4

The test system of assay [7] is EKVX. Particulars: Homo sapiens, 10 μM single dose, Non-small cell lung cancer, read-out: Cell Growth inhibition Percent. Here is the method: as §1, §2, §3, §4
Assay [8] has as its system M14. As to conditions: Homo sapiens; 10 μM single dose; M14, Melanoma; read-out: Cell Growth inhibition Percent. On the procedure:
as §1, §2, §3, §4

In assay [9] the test system is SR. As to conditions: Homo sapiens, 10 μM single dose, Leukemia, read-out: Cell Growth inhibition Percent. On the procedure:
as §1, §2, §3, §4

The test system of assay [10] is SNB-75. As to conditions: Homo sapiens; 10 μM single dose; SNB-75, CNS cancer; read-out: Cell Growth inhibition Percent. On the procedure:
as §1, §2, §3, §4

Assay [11] concerns ACHN. Particulars: Homo sapiens, 10 μM single dose, Renal cancer, read-out: Cell Growth inhibition Percent. Here is the method:
as §1, §2, §3, §4

For assay [12], the system named is MCF7. As to conditions: Homo sapiens; 10 μM single dose; MCF7, Breast cancer; read-out: Cell Growth inhibition Percent. On the procedure:
as §1, §2, §3, §4

The subject of assay [13] is IGROV1. Particulars: Homo sapiens, IGROV-1; 10 μM single dose; IGROV1, Ovarian Cancer; read-out: Cell Growth inhibition Percent. On the procedure: as §1, §2, §3, §4
In assay [14] the test system is HOP-62. Particulars: Homo sapiens; 10 μM single dose; HOP-62, Non-small cell lung cancer; read-out: Cell Growth inhibition Percent. On the procedure:
as §1, §2, §3, §4

Assay [15] relates to LOX IMVI. As to conditions: Homo sapiens, 10 μM single dose, Melanoma, read-out: Cell Growth inhibition Percent. Here is the method: as §1, §2, §3, §4
Assay [16] deals with NCI-H23. Particulars: Homo sapiens; 10 μM single dose; NCI-H23, Non-small cell lung cancer; read-out: Cell Growth inhibition Percent. Here is the method: as §1, §2, §3, §4
The subject of assay [17] is PC-3. As to conditions: Homo sapiens; 10 μM single dose; PC-3, Prostate cancer; read-out: Cell Growth inhibition Percent. Here is the method: as §1, §2, §3, §4
Assay [18] concerns NCI-H226. As to conditions: Homo sapiens; 10 μM single dose; NCI-H226, Non-small cell lung cancer; read-out: Cell Growth inhibition Percent. Here is the method:
as §1, §2, §3, §4

`O=C1Nc2ccccc2C1=CNc1ccc(C(=O)O)cc1` [Compound 4c, 4-{[(2-Oxoindolin-3-ylidene)methyl]amino}benzoic acid]: the inhibition at 10 µM amounted to 49.2% in [1]; 16.4% in [2]; 29.1% in [3]; 13.3% in assay [4]; 4.54% in assay [5]; 16.4% in assay [6]. In addition, the inhibition at 10 µM in [7] was 24.3%; in assay [8], 2.15%; in [9] it was 4.7%; in [10], 44.3%; in [11], 1.58%; in assay [12], 1.59%. The inhibition at 10 µM in assay [13] came out at 24.1%; in assay [14], 32%; in [15] it was 6.93%; in assay [16], 7.13%; in [17] it was 7.71%; in [18], 11.4%.
`NS(=O)(=O)c1nnc(NC=C2C(=O)Nc3ccccc32)s1` [Compound 4d, 5-{[(2-Oxoindolin-3-ylidene)methyl]amino}-1,3,4-thiadiazole-2-sulfonamide]: the inhibition at 10 µM in [1] was found to be 4.63%; in assay [2] it was 11.9%; in assay [3], 13.5%; in assay [4] it was 1.55%; in assay [5] it was 7.66%; in assay [7] it was 15.8%. Further, the inhibition at 10 µM was found to be 6.04% in assay [8]; 1.71% in assay [9]; 18.8% in [10]; 6.28% in [11]; 12.4% in assay [12]; 23.5% in assay [13]. In addition, the inhibition at 10 µM in [14] is 13.4%; in assay [16] it was 3.7%; in [17], 10.7%; in assay [18], 4.95%.
`NS(=O)(=O)N/C=C1/C(=O)Nc2ccccc21` [Compound 5, 3-(sulfamidmethylene)indoline-2-one]: the inhibition at 10 µM in assay [1] stood at 1.51%; in assay [2] it was 11%; in [3], 11.2%; in [5], 5.14%; in assay [6], 2.04%; in assay [7], 18.8%. Also, the inhibition at 10 µM in assay [8] worked out at 2.01%; in [10] it was 16.5%; in [11], 10.9%; in [12], 6.19%; in [13], 18.6%; in [14] it was 9.49%. In addition, the inhibition at 10 µM was 13.3% in assay [16], 5.36% in [17] and 8.23% in assay [18].
For `O=C1Nc2ccccc2C1=CNc1ccc(C(=O)Nc2ccc(S(=O)(=O)Nc3ncccn3)cc2)cc1` [Compound 9b, 4-{[(2-Oxoindolin-3-ylidene)methyl]amino}-N-{4-[N-(pyrimidin-2-yl)sulfamoyl]phenyl}benzamide], the inhibition at 10 µM in [1] turned out to be 43.9%; in assay [2], 4.65%; in [3] it was 27.6%; in assay [4], 7.67%; in assay [5], 3.83%; in assay [6] it was 3.48%. Further, the inhibition at 10 µM was 38.5% in [7]; 1.44% in assay [8]; 9.02% in assay [9]; 31.3% in [10]; 10.5% in [11]; 4.97% in [12]. Moreover, the inhibition at 10 µM in assay [13] is 21.3%; in assay [14], 27.7%; in assay [15], 7.22%; in assay [16], 9.28%; in assay [17], 7.1%; in assay [18] it was 12.2%.
Consider `NS(=O)(=O)c1ccc(NCc2ccc(NC=C3C(=O)Nc4ccccc43)cc2)cc1` [Compound 11a, 4-{[4-({[2-Oxoindolin-3-ylidene]methyl}amino)benzyl]amino}benzenesulfonamide], for which the inhibition at 10 µM came out at 13.9% in assay [1]; 34.7% in assay [3]; 12.6% in [4]; 16.5% in [5]; 11.3% in [6]; 47.4% in assay [7]. In addition, the inhibition at 10 µM in [9] turned out to be 18.7%; in assay [10], 32.8%; in assay [11] it was 7.22%; in assay [12], 23%; in assay [13] it was 32.7%; in [14] it was 30.5%. In addition, the inhibition at 10 µM in [15] amounted to 3.3%; in assay [16], 12%; in assay [17] it was 7.36%; in [18], 19.1%.
As for `O=C1Nc2ccccc2C1=CNc1ccc(C(=O)C=CNc2nccs2)cc1` [Compound 13c, 3-{[(4-{3-[Thiazol-2-ylamino]acryloyl}phenyl)amino]methylene}indolin-2-one], the inhibition at 10 µM in assay [1] was 59%; in [2], 11.4%; in assay [3], 30.8%; in assay [4] it was 3.49%; in assay [5], 10.7%; in assay [7], 16.8%. Further, the inhibition at 10 µM in assay [9] is 6%; in [12], 28.1%; in assay [13], 5.94%; in assay [14], 12%; in assay [15], 9.06%; in assay [16] it was 25.9%. Moreover, the inhibition at 10 µM turned out to be 15.3% in assay [17] and 1.09% in [18].
